Data as given in patent US20250011404A1, “TARGETING APOE ENHANCES T-CELL KILLING IN CANCER IMMUNOTHERAPY” (Children's National Medical Center, priority 2021, published 2025).
“Also recorded” adds a separate entry of the source.

Experiments:
[1] = test system: vaccinated splenocytes co-cultured with Myc inhibited B16 tumor cells; experiment: IFNγ ELISA, vaccinated splenocytes co-cultured with immunogenic B16 cells; type: cell-based, mouse; conditions: vaccinated WT splenocytes + Myc-inhibited B16 cells, 48 hr, in presence of COG133, dose dependent
Method: To further investigate the influence of tumor secreted apoE on immune cell function, immunogenic B16 tumor cells (B16 cells treated with Myc inhibitors (0.25 μM BET+0.25 μM JQ1 for 4 days) were irradiated at 60 Gray and co-cultured with naïve C57/BL6 splenocytes in the presence of either apoE mimetic COG133 at 0.3, 3 and 9 μM or anti-APOE blocking antibody at 1, 10 and 30 μg/ml concentrations. Prior work has shown the immunogenic effect of treating cancer cells with Myc inhibitors and irradiation. IFNγ production was quantified by ELISA at 48 h. Splenocytes produced high levels of IFNγ when co-cultured with Myc-inhibited immunogenic B16 cells as shown in FIGS. 3A-3C. Exposure of these cells to apoE mimetic COG133 repressed IFNγ production (6-fold reduction) (FIG. 3A), while the presence of Anti-APOE antibody enhanced IFNγ production (3-fold increase) (FIG. 3B). We also tested IFNγ production from vaccinated splenocytes following co-culture with treated and untreated B16 cells in the presence of COG 133. […] In addition to IFNγ, we also quantified other cytokine/chemokines using ProcartaPlex multiplex immunoassay. […] In addition, using ProcartaPlex multiplex immunoassay, we also quantified other cytokines/chemokines produced in the reaction. […] Readings were measured at 450 nm using the EnSpire 2300 Multilabel plate reader (Perkin Elmer, Waltham, Massachusetts, US).

activated mouse T cells = experiment: Viability of CD3/CD28-activated T cells, flow cytometry with Sytox Red dead cell stain; type: cell-based; conditions: T cells activated with CD3/CD28 dynabeads; COG133 0, 3, 9, 15 and 30 μM; 48 hr
Method: FIG. 14A: T cells isolated from naïve mouse spleens were cultured in RPMI media, WT B16 conditioned media and apoE^−/− B16 conditioned media for 48 hr and the media was analyzed with ProcartaPlex multiplex immunoassay. […] Remarkably, these effects were reversed by incubating T-cells with conditioned media from apoE^−/− cells, similar to T-cells activated in control RPMI media alone. Results are expressed as mean score±SD. *p<0.05; **p<0.005; ***p<0.001, determined by unpaired two-tailed Student's t-test. FIG. 14B: The effect of apoE agonist peptide COG133 on the viability of activated mouse T cells was tested by culturing the cells in the presence of the indicated concentrations of peptide for 48 hr and cell death was quantified with flow cytometry using the APC-conjugated Sytox Red dead cell stain. […] The number in Quadrant 2 is the percentage of dead cells.
T cells were activated with CD3/CD28 dynabeads and the effects of COG133 (0, 3, 9, 15 and 30 μM concentrations) on T cell apoptosis were evaluated.
Spleens were collected from mice euthanized by C02 narcosis and cervical dislocation. Spleens were pulverized through a 40-μm mesh cell strainer and treated with ACK lysing buffer (Thermo Fisher) for 10 seconds to remove erythrocytes. […]

In the case of “COG133: a fragment of apoE peptide, which competes with the apoE holoprotein for binding the LDL receptors and acts as an apoE mimetic”, the “IFNγ production from vaccinated splenocytes” value [1] is reported as “inhibited; also recorded: inhibitory; also recorded: significantly suppressed”, the “IFNγ production from vaccinated splenocytes” value ([1]; listed as COG 133) is reported as “suppressed” and the T cell viability (activated mouse T cells) is reported as “diminished in a dose dependent manner; also recorded: decreases in a dose dependent fashion”.
